Measured values published in US8115015B2 (Cadila Healthcare Limited, priority 2009, dated 2012).

Assay: Stability of Atorvastatin Calcium Amorphous (related substances by HPLC on storage)
Type: physicochemical
[1] = 25° ± 2° C./RH 60 ± 5%, 1 Month
[2] = 25° ± 2° C./RH 60 ± 5%, 2 Months
[3] = 25° ± 2° C./RH 60 ± 5%, 3 months
[4] = 25° ± 2° C./RH 60 ± 5%, 6 Months
[5] = 25° ± 2° C./RH 60 ± 5%, 6 Months, listed as stable amorphous atrovastatin calcium
[6] = 25°±2° C./RH 60±5% for 6 months
[7] = Cold (5° C.) 2° to 8° C., 1 Month
[8] = Cold (5° C.) 2° to 8° C., 2 Months
[9] = Cold (5° C.) 2° to 8° C., 3 months
[10] = Cold (5° C.) 2° to 8° C., 6 Months
[11] = Cold (5° C.) 2° to 8° C., 6 Months, listed as stable amorphous atrovastatin calcium

Substance: hemi-calcium salt of (3R, 5R) 7-[3-phenyl-4-phenylcarbamoyl-2-(4-fluorophenyl)-5-isopropyl-pyrrol-1-yl]-3,5-dihydroxyheptanoic acid [Atorvastatin Calcium Amorphous]
- single individual unknown impurities, area percentage of HPLC (20 to 8° C. under cold (5° C.) condition for 6 months): < 0.1%
- Related Substance by HPLC: 3-O-Methyl Atorvastatin Calcium [1]: 0.02%
- Related Substance by HPLC: Atorvastatin Desflouro Calcium [1]: 0.05%
- Related Substance by HPLC: Atorvastatin Diasteroisomer [1]: 0.08%
- Related Substance by HPLC: Atorvastatin Lactone [1]: 0.07%
- Related Substance by HPLC: 3-O-Methyl Atorvastatin Calcium [2]: 0.03
- Related Substance by HPLC: Atorvastatin Desflouro Calcium [2]: 0.06%
- Related Substance by HPLC: Atorvastatin Diasteroisomer [2]: 0.10%
- Related Substance by HPLC: Atorvastatin Lactone [2]: 0.05%
- Related Substance by HPLC: 3-O-Methyl Atorvastatin Calcium [3]: 0.03%
- Related Substance by HPLC: Atorvastatin Desflouro Calcium [3]: 0.06%
- Related Substance by HPLC: Atorvastatin Diasteroisomer [3]: 0.12%
- Related Substance by HPLC: Atorvastatin Lactone [3]: 0.04%
- Related Substance by HPLC: 3-O-Methyl Atorvastatin Calcium [4]: 0.03%
- Related Substance by HPLC: Atorvastatin Desflouro Calcium [4]: 0.06%
- Related Substance by HPLC: Atorvastatin Diasteroisomer [4]: 0.11%
- Related Substance by HPLC: Atorvastatin Lactone [4]: 0.05%
- Related Substance by HPLC: Atorvastatin diol methyl ester [4]: less than 0.1%
- Related Substance by HPLC: Atorvastatin protected diol [4]: less than 0.1%
- Related Substance by HPLC: t-butyl diol ester [4]: less than 0.1%
- Related Substance by HPLC: 3-O-Methyl Atorvastatin Calcium [5]: less than 0.1%
- Related Substance by HPLC: Atorvastatin Desflouro Calcium [5]: less than 0.1%
- Related Substance by HPLC: Atorvastatin Diasteroisomer [5]: less than 0.1%
- Related Substance by HPLC: Atorvastatin Lactone [5]: less than 0.1%
- single individual known impurities, area percentage of HPLC [6]: less than 0.15%
- single individual unknown impurities, area percentage of HPLC [6]: less than 0.1%
- Related Substance by HPLC: 3-O-Methyl Atorvastatin Calcium [7]: 0.03%
- Related Substance by HPLC: Atorvastatin Desflouro Calcium [7]: 0.06%
- Related Substance by HPLC: Atorvastatin Diasteroisomer [7]: 0.08%
- Related Substance by HPLC: Atorvastatin Lactone [7]: 0.08%
- Related Substance by HPLC: 3-O-Methyl Atorvastatin Calcium [8]: 0.03%
- Related Substance by HPLC: Atorvastatin Desflouro Calcium [8]: 0.07%
- Related Substance by HPLC: Atorvastatin Diasteroisomer [8]: 0.09%
- Related Substance by HPLC: Atorvastatin Lactone [8]: 0.04%
- Related Substance by HPLC: 3-O-Methyl Atorvastatin Calcium [9]: 0.03%
- Related Substance by HPLC: Atorvastatin Desflouro Calcium [9]: 0.07%
- Related Substance by HPLC: Atorvastatin Diasteroisomer [9]: 0.10%
- Related Substance by HPLC: Atorvastatin Lactone [9]: 0.05%
- Related Substance by HPLC: 3-O-Methyl Atorvastatin Calcium [10]: 0.03%
- Related Substance by HPLC: Atorvastatin Desflouro Calcium [10]: 0.05%
- Related Substance by HPLC: Atorvastatin Diasteroisomer [10]: 0.08%
- Related Substance by HPLC: Atorvastatin Lactone [10]: 0.06%
- Related Substance by HPLC: Atorvastatin diol methyl ester [10]: less than 0.1%
- Related Substance by HPLC: Atorvastatin protected diol [10]: less than 0.1%
- Related Substance by HPLC: t-butyl diol ester [10]: less than 0.1%
- Related Substance by HPLC: 3-O-Methyl Atorvastatin Calcium [11]: less than 0.1%
- Related Substance by HPLC: Atorvastatin Desflouro Calcium [11]: less than 0.1%
- Related Substance by HPLC: Atorvastatin Diasteroisomer [11]: less than 0.1%
- Related Substance by HPLC: Atorvastatin Lactone [11]: less than 0.1%
- Related Substance by HPLC: 3-O-Methyl Atorvastatin Calcium (Initial): 0.02%
- Related Substance by HPLC: Atorvastatin Desflouro Calcium (Initial): 0.06%
- Related Substance by HPLC: Atorvastatin Diasteroisomer (Initial): 0.07%
- Related Substance by HPLC: Atorvastatin Lactone (Initial): 0.09%
- Related Substance by HPLC: Atorvastatin protected diol (Initial): 0.01%
- single individual known impurities, area percentage of HPLC (cold (5° C.) condition for 6 months): less than 0.15%
